In ChEMBL document CHEMBL2417377, “Hit-to-lead optimization and kinase selectivity of imidazo[1,2-a]quinoxalin-4-amine derived JNK1 inhibitors” (Bioorg Med Chem Lett, 2013):

Key:
Details in all cases: PC-3
[1] = target: Serine/threonine-protein kinase tousled-like 2 (Homo sapiens) (UniProt Q86UE8); assay: Inhibition of TLK2 in human PC3 cell lysates at 10 uM using desthiobiotin-tagged ATP probe AX9989 followed by trypsinization by LC/MS analysis
[2] = target: Mitogen-activated protein kinase 1 (Homo sapiens) (UniProt P28482); assay: Inhibition of Erk2 in human PC3 cell lysates at 10 uM using desthiobiotin-tagged ATP probe AX9989 followed by trypsinization by LC/MS analysis
Chain of Mitogen-activated protein kinase 1 (Homo sapiens) (P28482 whole entry): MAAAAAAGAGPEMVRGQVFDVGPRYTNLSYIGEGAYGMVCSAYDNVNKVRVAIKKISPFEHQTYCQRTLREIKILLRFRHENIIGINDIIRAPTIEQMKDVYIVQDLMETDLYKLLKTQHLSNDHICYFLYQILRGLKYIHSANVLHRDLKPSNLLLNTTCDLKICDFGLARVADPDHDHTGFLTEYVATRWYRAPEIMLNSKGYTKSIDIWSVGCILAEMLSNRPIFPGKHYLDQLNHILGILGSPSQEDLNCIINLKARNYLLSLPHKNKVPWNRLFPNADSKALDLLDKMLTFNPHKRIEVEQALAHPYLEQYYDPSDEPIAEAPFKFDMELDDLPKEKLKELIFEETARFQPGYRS

[3] = target: T1, Eukaryotic translation initiation factor 2-alpha kinase 3 (Homo sapiens) (UniProt Q9NZJ5); assay: Inhibition of PEK in human PC3 cell lysates at 10 uM using desthiobiotin-tagged ATP probe AX9989 followed by trypsinization by LC/MS analysis
T1 sequence (whole entry): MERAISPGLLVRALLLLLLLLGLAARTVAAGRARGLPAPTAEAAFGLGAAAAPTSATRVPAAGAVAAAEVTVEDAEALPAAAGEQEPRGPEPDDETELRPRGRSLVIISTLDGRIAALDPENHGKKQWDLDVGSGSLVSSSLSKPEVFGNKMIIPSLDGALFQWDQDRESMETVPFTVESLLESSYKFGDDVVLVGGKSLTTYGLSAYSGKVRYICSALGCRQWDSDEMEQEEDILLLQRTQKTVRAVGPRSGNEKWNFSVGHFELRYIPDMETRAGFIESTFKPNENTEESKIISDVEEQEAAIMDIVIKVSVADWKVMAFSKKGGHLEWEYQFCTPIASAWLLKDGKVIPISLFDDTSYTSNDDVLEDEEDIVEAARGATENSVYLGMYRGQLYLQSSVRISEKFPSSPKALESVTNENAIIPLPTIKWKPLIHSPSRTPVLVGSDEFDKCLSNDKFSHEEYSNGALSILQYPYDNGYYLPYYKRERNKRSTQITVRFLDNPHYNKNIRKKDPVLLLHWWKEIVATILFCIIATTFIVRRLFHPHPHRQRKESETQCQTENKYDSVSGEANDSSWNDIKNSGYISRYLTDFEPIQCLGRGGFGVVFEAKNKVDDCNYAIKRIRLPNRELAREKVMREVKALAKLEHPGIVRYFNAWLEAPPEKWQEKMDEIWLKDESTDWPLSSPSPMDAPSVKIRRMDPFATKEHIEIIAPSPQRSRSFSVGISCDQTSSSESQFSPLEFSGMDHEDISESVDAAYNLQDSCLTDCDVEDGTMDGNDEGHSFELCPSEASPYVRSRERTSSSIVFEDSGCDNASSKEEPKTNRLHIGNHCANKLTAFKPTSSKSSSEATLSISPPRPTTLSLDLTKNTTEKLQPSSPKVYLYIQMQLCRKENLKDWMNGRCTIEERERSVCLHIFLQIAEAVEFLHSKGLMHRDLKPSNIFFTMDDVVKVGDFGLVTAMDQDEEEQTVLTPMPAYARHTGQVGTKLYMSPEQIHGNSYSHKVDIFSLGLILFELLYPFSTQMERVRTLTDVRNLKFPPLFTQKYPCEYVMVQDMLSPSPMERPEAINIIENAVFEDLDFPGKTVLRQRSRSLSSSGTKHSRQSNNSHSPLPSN

[4] = target: Ephrin type-A receptor 2 (Homo sapiens) (UniProt P29317); assay: Inhibition of EphA2 in human PC3 cell lysates at 10 uM using desthiobiotin-tagged ATP probe AX9989 followed by trypsinization by LC/MS analysis
[5] = target: T2, Mitogen-activated protein kinase kinase kinase 2 (Homo sapiens) (UniProt Q9Y2U5); assay: Inhibition of MAP3K2 in human PC3 cell lysates at 10 uM using desthiobiotin-tagged ATP probe AX9989 followed by trypsinization by LC/MS analysis
T2 sequence (whole entry): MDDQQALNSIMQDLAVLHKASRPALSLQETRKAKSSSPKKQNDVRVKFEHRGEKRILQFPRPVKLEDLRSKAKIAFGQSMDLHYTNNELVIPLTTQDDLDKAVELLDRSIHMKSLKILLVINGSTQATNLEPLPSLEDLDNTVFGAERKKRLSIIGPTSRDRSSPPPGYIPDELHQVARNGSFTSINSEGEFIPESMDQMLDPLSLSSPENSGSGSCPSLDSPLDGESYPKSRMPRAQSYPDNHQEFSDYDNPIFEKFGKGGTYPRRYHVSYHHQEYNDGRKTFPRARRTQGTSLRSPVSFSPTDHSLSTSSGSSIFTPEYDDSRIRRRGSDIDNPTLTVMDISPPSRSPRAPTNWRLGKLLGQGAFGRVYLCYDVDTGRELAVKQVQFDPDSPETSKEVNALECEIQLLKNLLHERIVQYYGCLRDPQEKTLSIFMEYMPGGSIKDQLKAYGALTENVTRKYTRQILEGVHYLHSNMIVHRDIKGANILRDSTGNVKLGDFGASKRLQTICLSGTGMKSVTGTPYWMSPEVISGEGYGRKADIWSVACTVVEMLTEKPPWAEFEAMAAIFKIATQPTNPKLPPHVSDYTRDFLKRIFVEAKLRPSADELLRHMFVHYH

[6] = target: Dual specificity mitogen-activated protein kinase kinase 1 (Homo sapiens) (UniProt Q02750); assay: Inhibition of MAP2K1 in human PC3 cell lysates at 10 uM using desthiobiotin-tagged ATP probe AX9989 followed by trypsinization by LC/MS analysis
Chain of Dual specificity mitogen-activated protein kinase kinase 1 (Homo sapiens) (Q02750 whole entry): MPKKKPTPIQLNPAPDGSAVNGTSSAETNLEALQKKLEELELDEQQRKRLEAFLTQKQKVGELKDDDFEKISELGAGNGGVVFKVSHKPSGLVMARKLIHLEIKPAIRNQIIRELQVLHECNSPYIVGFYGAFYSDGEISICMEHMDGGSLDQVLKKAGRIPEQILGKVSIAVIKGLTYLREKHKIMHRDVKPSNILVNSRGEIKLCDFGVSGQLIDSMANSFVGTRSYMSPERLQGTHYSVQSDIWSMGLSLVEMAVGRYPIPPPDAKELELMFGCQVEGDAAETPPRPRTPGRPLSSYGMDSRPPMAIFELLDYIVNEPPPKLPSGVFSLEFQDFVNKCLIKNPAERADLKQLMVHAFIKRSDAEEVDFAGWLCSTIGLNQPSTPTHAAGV

[7] = target: MAP/microtubule affinity-regulating kinase 3 (Homo sapiens) (UniProt P27448); assay: Inhibition of MARK3 in human PC3 cell lysates at 10 uM using desthiobiotin-tagged ATP probe AX9989 followed by trypsinization by LC/MS analysis
[8] = target: Serine/threonine-protein kinase Nek6 (Homo sapiens) (UniProt Q9HC98); assay: Inhibition of NEK6 in human PC3 cell lysates at 10 uM using desthiobiotin-tagged ATP probe AX9989 followed by trypsinization by LC/MS analysis
Chain of Serine/threonine-protein kinase Nek6 (Homo sapiens) (Q9HC98 whole entry): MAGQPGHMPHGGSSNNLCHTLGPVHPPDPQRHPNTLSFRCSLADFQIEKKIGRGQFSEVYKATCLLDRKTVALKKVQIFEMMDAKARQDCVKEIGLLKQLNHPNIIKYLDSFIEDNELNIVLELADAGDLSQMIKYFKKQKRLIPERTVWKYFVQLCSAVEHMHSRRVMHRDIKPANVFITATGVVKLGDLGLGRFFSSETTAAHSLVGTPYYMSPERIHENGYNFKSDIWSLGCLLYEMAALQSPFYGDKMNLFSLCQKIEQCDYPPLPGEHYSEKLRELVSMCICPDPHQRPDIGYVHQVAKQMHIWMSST

[9] = target: Tyrosine-protein kinase CSK (Homo sapiens) (UniProt P41240); assay: Inhibition of CSK in human PC3 cell lysates at 10 uM using desthiobiotin-tagged ATP probe AX9989 followed by trypsinization by LC/MS analysis
[10] = target: Macrophage-stimulating protein receptor (Homo sapiens) (UniProt Q04912); assay: Inhibition of RON in human PC3 cell lysates at 10 uM using desthiobiotin-tagged ATP probe AX9989 followed by trypsinization by LC/MS analysis
[11] = target: SRSF protein kinase 1 (Homo sapiens) (UniProt Q96SB4); assay: Inhibition of SRPK1 in human PC3 cell lysates at 10 uM using desthiobiotin-tagged ATP probe AX9989 followed by trypsinization by LC/MS analysis
Chain of SRSF protein kinase 1 (Homo sapiens) (Q96SB4 whole entry): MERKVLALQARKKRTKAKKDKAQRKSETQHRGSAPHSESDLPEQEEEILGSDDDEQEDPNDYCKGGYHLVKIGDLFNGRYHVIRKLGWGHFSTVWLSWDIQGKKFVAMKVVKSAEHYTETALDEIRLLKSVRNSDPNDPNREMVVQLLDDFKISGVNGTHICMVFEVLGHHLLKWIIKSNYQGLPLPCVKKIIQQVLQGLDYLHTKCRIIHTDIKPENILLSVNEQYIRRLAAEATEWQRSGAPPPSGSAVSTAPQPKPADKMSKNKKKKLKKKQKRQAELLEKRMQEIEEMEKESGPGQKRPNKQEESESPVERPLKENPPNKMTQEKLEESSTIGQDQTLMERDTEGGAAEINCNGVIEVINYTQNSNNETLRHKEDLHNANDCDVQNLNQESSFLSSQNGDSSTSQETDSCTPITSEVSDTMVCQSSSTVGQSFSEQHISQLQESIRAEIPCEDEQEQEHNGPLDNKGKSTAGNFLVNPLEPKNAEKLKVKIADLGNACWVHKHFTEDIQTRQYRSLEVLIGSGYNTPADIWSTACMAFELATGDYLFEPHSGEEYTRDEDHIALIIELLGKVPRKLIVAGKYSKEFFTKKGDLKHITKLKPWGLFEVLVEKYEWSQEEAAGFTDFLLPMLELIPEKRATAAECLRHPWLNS

[12] = target: AMPK alpha1/alpha2 (Homo sapiens) (UniProt P54646+Q13131); assay: Inhibition of AMPKalpha1/AMPKalpha2 in human PC3 cell lysates at 10 uM using desthiobiotin-tagged ATP probe AX9989 followed by trypsinization by LC/MS analysis; format: protein-complex assay
Chain of AMPK alpha1/alpha2 (Homo sapiens) (P54646 whole entry, looked up): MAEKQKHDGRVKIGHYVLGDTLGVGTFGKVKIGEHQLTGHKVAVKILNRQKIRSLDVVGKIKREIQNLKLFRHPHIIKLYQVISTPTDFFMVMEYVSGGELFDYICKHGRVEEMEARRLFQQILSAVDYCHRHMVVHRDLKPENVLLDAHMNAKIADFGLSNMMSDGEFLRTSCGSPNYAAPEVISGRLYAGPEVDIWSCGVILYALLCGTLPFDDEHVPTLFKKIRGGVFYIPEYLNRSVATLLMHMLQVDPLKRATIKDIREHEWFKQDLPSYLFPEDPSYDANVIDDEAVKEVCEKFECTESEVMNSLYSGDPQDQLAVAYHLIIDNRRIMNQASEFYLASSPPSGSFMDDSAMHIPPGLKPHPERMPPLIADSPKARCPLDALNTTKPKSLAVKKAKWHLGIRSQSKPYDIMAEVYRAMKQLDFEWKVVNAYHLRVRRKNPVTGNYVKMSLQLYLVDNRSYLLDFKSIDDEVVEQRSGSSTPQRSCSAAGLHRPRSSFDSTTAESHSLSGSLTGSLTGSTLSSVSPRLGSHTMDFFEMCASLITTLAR
Chain of AMPK alpha1/alpha2 (Homo sapiens) (Q13131 whole entry, looked up): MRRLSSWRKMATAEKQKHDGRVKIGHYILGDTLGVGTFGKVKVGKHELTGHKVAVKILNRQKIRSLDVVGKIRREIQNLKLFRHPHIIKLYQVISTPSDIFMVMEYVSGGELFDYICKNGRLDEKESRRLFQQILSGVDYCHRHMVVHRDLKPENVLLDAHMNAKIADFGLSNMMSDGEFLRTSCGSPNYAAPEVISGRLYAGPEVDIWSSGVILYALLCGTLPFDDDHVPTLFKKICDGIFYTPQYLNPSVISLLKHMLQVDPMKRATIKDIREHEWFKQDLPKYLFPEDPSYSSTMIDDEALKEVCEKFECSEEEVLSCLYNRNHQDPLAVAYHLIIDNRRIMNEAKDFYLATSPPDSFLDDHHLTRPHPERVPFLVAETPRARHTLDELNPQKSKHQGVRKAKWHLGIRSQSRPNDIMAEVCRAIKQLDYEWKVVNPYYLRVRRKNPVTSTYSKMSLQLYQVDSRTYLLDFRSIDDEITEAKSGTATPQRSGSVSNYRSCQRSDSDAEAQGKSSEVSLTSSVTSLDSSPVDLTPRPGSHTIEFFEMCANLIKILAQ

[13] = target: Epidermal growth factor receptor (Homo sapiens) (UniProt P00533); assay: Inhibition of EGFR in human PC3 cell lysates at 10 uM using desthiobiotin-tagged ATP probe AX9989 followed by trypsinization by LC/MS analysis
Chain of Epidermal growth factor receptor (Homo sapiens) (P00533 whole entry): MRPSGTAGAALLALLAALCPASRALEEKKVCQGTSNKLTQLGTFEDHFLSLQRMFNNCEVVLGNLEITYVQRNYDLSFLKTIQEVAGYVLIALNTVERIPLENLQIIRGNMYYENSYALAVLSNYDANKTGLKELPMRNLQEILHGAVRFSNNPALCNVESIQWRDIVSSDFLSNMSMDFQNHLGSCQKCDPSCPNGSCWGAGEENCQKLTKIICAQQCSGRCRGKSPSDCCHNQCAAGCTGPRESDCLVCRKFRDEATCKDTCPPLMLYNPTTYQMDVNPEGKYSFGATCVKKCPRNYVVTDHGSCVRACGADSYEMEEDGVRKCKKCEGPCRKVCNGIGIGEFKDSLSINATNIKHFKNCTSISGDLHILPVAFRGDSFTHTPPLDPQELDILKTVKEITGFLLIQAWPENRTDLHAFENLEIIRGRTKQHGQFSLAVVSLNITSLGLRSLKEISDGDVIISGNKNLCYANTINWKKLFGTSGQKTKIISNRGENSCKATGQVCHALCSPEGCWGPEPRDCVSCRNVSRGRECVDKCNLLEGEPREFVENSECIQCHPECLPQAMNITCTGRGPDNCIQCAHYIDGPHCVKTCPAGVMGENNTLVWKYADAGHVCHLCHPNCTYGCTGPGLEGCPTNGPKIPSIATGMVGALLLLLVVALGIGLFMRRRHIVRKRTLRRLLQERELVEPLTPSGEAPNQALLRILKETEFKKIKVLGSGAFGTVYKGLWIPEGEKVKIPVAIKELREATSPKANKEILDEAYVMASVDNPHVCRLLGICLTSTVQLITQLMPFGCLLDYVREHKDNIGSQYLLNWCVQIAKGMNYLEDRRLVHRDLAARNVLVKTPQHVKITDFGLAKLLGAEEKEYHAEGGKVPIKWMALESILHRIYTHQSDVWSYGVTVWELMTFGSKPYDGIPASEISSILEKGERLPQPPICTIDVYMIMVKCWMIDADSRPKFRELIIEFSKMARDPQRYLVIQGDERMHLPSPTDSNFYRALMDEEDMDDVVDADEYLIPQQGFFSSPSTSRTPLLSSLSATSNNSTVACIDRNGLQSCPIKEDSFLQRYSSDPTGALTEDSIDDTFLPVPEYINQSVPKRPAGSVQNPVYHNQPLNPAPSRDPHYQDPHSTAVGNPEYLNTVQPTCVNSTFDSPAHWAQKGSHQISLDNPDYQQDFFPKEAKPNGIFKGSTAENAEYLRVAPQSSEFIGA

Chain of Serine/threonine-protein kinase tousled-like 2 (Homo sapiens) (Q86UE8 whole entry, looked up): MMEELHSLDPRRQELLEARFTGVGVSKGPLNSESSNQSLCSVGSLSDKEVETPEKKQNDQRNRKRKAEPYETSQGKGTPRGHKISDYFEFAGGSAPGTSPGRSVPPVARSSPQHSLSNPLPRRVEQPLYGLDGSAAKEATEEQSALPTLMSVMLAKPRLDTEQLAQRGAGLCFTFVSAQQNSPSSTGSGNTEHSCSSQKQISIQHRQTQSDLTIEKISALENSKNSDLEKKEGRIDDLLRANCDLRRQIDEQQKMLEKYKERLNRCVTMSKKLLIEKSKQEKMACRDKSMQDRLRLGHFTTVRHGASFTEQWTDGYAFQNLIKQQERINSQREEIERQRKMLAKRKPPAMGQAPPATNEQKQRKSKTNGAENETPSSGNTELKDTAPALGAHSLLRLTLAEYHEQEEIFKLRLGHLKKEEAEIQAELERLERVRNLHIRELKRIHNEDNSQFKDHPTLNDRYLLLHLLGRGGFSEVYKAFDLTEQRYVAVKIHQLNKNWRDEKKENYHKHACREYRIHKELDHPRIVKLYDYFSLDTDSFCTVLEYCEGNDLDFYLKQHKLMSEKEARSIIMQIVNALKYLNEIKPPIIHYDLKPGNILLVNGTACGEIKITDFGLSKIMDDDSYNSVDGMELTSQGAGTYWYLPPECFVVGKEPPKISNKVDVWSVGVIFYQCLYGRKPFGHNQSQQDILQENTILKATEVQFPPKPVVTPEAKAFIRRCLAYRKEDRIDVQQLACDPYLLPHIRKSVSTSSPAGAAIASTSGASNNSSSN

Row | SMILES | inhibition [1] [%] | inhibition [2] [%] | inhibition [3] [%] | inhibition [4] [%] | inhibition [5] [%] | inhibition [6] [%] | inhibition [7] [%] | inhibition [8] [%] | inhibition [9] [%] | inhibition [10] [%] | inhibition [11] [%] | inhibition [12] [%] | inhibition [13] [%]
1 | O=C(NC1(c2ccccc2)CC1)c1ccc2nc(N[C@H]3CC[C@H](O)CC3)c3nccn3c2c1 | < 35 | < 35 | < 35 | < 35 | < 35 | < 35 | < 35 | < 35 | < 35 | < 35 | < 35 | < 35 | < 35
2 | C[C@@H](NC(=O)c1ccc2nc(N[C@H]3CC[C@H](O)CC3)c3nccn3c2c1)c1ccccc1 | < 35 | < 35 | 38.4 | < 35 | < 35 | < 35 | < 35 | < 35 | < 35 | < 35 | < 35 | 43.2 | < 35
3 | O=C(O)c1ccc2nc(N[C@H]3CC[C@H](O)CC3)c3nccn3c2c1 | < 35 | < 35 | 37.5 | < 35 | < 35 | < 35 | < 35 | < 35 | < 35 | < 35 | < 35 | < 35 | < 35
4 | O=C(NC1(c2ccc(F)cc2)CC1)c1ccc2nc(N[C@H]3CC[C@H](O)CC3)c3nccn3c2c1 | < 35 | < 35 | < 35 | < 35 | < 35 | < 35 | < 35 | < 35 | < 35 | < 35 | < 35 | < 35 | < 35
5 | O=C(NC1(Cc2ccc(F)cc2)CC1)c1ccc2nc(N[C@H]3CC[C@H](O)CC3)c3nccn3c2c1 | < 35 | < 35 | < 35 | < 35 | < 35 | < 35 | < 35 | < 35 | < 35 | < 35 | < 35 | < 35 | < 35
6 | CC[C@@H](NC(=O)c1ccc2nc(N[C@H]3CC[C@H](O)CC3)c3nccn3c2c1)c1ccccc1 | < 35 | < 35 | < 35 | < 35 | < 35 | < 35 | < 35 | < 35 | < 35 | < 35 | < 35 | < 35 | < 35
7 | CCC[C@@H](NC(=O)c1ccc2nc(N[C@H]3CC[C@H](O)CC3)c3nccn3c2c1)c1ccccc1 | < 35 | < 35 | < 35 | < 35 | < 35 | < 35 | < 35 | < 35 | < 35 | < 35 | < 35 | < 35 | < 35
8 | NC(=O)c1ccc2nc(N[C@H]3CC[C@H](O)CC3)c3nccn3c2c1 | < 35 | < 35 | < 35 | < 35 | < 35 | < 35 | < 35 | < 35 | < 35 | < 35 | < 35 | < 35 | < 35
9 | O=C(N[C@H](CO)c1ccccc1)c1ccc2nc(N[C@H]3CC[C@H](O)CC3)c3nccn3c2c1 | < 35 | < 35 | < 35 | < 35 | < 35 | < 35 | < 35 | < 35 | < 35 | < 35 | < 35 | 40.1 | < 35
10 | CC(C)(NC(=O)c1ccc2nc(N[C@H]3CC[C@H](O)CC3)c3nccn3c2c1)c1ccccc1 | < 35 | < 35 | < 35 | < 35 | < 35 | < 35 | < 35 | < 35 | < 35 | < 35 | < 35 | < 35 | < 35
11 | C[C@H](NC(=O)c1ccc2nc(N[C@H]3CC[C@H](O)CC3)c3nccn3c2c1)c1ccccc1 | < 35 | < 35 | < 35 | < 35 | < 35 | < 35 | < 35 | < 35 | < 35 | < 35 | < 35 | < 35 | < 35
12 | O=C(NC1(c2ccccc2)CCC1)c1ccc2nc(N[C@H]3CC[C@H](O)CC3)c3nccn3c2c1 | < 35 | < 35 | < 35 | < 35 | < 35 | < 35 | < 35 | < 35 | < 35 | < 35 | < 35 | < 35 | < 35
